According to paper PMC10667104, “Biosynthesis of natural and halogenated plant monoterpene indole alkaloids in yeast” (Nature Chemical Biology, 2023):

Target: T1, ADRA2A (Homo sapiens, UniProt P08913)
T1 sequence (P08913 1-465): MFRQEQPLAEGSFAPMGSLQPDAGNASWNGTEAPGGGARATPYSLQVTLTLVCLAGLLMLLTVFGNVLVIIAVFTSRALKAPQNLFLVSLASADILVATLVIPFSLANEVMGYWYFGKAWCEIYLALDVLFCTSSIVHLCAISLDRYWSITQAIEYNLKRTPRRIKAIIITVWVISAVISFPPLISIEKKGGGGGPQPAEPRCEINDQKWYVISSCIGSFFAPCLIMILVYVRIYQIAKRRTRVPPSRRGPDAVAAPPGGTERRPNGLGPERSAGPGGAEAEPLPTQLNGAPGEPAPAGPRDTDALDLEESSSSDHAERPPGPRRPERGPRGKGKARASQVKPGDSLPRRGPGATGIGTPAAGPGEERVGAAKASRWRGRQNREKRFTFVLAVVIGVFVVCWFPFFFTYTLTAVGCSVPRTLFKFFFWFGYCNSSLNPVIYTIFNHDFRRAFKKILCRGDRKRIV
Experiment: cell-based

## COC(=O)C1=CO[C@@H](C)[C@@H]2Cn3ccc4c5ccccc5nc-4c3C[C@H]12 [1a, alstonine]
  IC50: 59 µM
